Data on 28 molecules can be found in ChEMBL document CHEMBL1144434, “Structure-activity relationships within a series of caspase inhibitors. Part 2: Heterocyclic warheads” (Bioorg Med Chem Lett, 2005).

Structures are written as SMILES. pIC50: −log10 of the molar value.

Assay [1] deals with T1, Caspase-3 (Homo sapiens) (UniProt P42574).
T1 sequence (whole entry): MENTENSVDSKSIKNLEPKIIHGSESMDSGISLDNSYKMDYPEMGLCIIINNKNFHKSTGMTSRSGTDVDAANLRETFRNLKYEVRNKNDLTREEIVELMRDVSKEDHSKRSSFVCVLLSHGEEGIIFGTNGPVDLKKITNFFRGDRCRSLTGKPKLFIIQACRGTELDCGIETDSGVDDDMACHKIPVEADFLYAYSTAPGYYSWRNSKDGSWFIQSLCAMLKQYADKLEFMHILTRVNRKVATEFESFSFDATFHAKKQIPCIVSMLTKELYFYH
In words: Binding affinity against Caspase-3.

Assay [2] addresses T2, Caspase-6 (Homo sapiens) (UniProt P55212).
T2 sequence (whole entry): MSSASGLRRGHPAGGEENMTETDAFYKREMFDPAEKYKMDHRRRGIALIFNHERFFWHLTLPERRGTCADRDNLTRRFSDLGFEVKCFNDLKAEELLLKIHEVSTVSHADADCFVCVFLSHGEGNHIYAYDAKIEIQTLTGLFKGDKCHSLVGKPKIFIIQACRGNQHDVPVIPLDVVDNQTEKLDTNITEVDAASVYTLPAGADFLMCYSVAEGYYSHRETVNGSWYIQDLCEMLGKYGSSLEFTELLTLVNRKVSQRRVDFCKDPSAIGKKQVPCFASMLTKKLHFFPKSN
In words: Binding affinity against Caspase-6.

Assay [3] deals with Caspase-8 (Homo sapiens) (UniProt Q14790). In words: Binding affinity against Caspase-8.
Assay [4] has as its target T3, Caspase-1 (Mus musculus) (UniProt P29452).
T3 sequence (whole entry): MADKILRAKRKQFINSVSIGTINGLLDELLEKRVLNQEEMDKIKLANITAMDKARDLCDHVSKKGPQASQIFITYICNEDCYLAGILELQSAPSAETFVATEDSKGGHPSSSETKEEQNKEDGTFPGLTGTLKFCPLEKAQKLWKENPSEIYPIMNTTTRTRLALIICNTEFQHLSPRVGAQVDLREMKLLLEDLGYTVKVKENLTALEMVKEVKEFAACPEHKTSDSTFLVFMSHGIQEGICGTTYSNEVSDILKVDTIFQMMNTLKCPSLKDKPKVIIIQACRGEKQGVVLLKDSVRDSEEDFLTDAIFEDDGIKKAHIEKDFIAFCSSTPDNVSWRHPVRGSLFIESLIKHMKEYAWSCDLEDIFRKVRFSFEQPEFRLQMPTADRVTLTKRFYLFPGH
As to the kind of experiment: Binding affinity against mouse Caspase-1.

Assay [5] deals with Jurkat. In words: Inhibitory concentration for cellular activity in jurkat assay. Particulars: Homo sapiens. Type of assay: functional, cell-based.

Caspase-8 (Homo sapiens), sequence (Q14790 217-374 limits assumed): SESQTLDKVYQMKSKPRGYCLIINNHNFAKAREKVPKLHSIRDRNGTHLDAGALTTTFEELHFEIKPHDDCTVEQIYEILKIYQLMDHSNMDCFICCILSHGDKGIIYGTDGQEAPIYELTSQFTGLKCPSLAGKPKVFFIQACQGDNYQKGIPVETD
Caspase-8 (Homo sapiens), sequence (Q14790 385-479 limits assumed): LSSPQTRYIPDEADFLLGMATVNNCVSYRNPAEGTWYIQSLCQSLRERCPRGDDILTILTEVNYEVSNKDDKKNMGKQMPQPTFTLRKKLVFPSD

In the case of `Cc1cc(C)nc(SCC(=O)[C@H](CC(=O)O)NC(=O)[C@@H](NC(=O)COc2cccc3ccccc23)C(C)C)n1`, the k3/ki in assay [1] was 7130 1/m/s; in assay [2], 656 1/m/s; in assay [3] it was 120 1/m/s; in assay [4], 950 1/m/s. In assay [5], the pIC50 (in general, the negative decadic logarithm of the IC50, by convention in mol/L) is < 3.70.
For `CC(C)[C@H](NC(=O)COc1cccc2ccccc12)C(=O)N[C@@H](CC(=O)O)C(=O)COn1nnc2ccccc21`, the k3/ki in assay [1] is 121000 1/m/s; in assay [2], 8530 1/m/s; in assay [3] it was 14500 1/m/s; in assay [4] it was 28300 1/m/s. Further, in assay [5], the pIC50 is < 3.70.
For the molecule `CC(C)[C@H](NC(=O)COc1cccc2ccccc12)C(=O)N[C@@H](CC(=O)O)C(=O)CSc1nc2ccccc2o1`, the k3/ki in assay [1], in assay [3] and in assay [4] was 0 1/m/s each time. The pIC50 in assay [5] is < 3.70.
`CC(C)[C@H](NC(=O)COc1cccc2ccccc12)C(=O)N[C@@H](CC(=O)O)C(=O)COc1nncc(Cl)c1Cl`: the k3/ki is 1760 1/m/s in assay [1], 8 1/m/s in assay [2], 0 1/m/s in assay [3] and 152 1/m/s in assay [4]. The pIC50 in assay [5] was < 3.70.
For `CC(C)[C@H](NC(=O)COc1cccc2ccccc12)C(=O)N[C@@H](CC(=O)O)C(=O)CSc1ncc[nH]1` the same measures were 850 1/m/s, 22 1/m/s, 0 1/m/s, 173 1/m/s and < 3.70.
In the case of `CC(C)[C@H](NC(=O)COc1cccc2ccccc12)C(=O)N[C@@H](CC(=O)O)C(=O)CSc1nc(-c2ccccc2)no1`, the k3/ki in assay [1] was 38100 1/m/s; in assay [2] it was 975 1/m/s; in assay [3], 3060 1/m/s; in assay [4], 1190 1/m/s. In addition, the pIC50 in assay [5] is 3.99.
In the case of `CC(C)[C@H](NC(=O)COc1cccc2ccccc12)C(=O)N[C@@H](CC(=O)O)C(=O)CSc1nncn1C`, the k3/ki in assay [1] was 2260 1/m/s; in assay [2] it was 221 1/m/s; in assay [3] it was 293 1/m/s; in assay [4], 180 1/m/s. In addition, the pIC50 in assay [5] is < 3.70.
With `CC(C)[C@H](NC(=O)COc1cccc2ccccc12)C(=O)N[C@@H](CC(=O)O)C(=O)COc1nccc2ccccc12`, the k3/ki is 1310 1/m/s in assay [1], 462 1/m/s in assay [2], 177 1/m/s in assay [3] and 360 1/m/s in assay [4]. In assay [5], this molecule showed a pIC50 of 3.97.
`CC(C)[C@H](NC(=O)COc1cccc2ccccc12)C(=O)N[C@@H](CC(=O)O)C(=O)CSc1nc2ccccc2[nH]1`: the k3/ki in assay [1] was 1770 1/m/s; in assay [2] it was 25 1/m/s; in assay [3], 10 1/m/s; in assay [4], 168 1/m/s. The pIC50 in assay [5] was < 3.70.
For `CC(C)[C@H](NC(=O)COc1cccc2ccccc12)C(=O)N[C@@H](CC(=O)O)C(=O)CSc1nc2ccccc2s1` the same measures were 3570 1/m/s, 0 1/m/s, 0 1/m/s, 202 1/m/s and < 3.70.
For `COC(=O)c1cc(OCC(=O)[C@H](CC(=O)O)NC(=O)[C@@H](NC(=O)COc2cccc3ccccc23)C(C)C)no1` the same measures were 144000 1/m/s, 5800 1/m/s, 6340 1/m/s, 42500 1/m/s and 4.15.
As to `CC(C)[C@H](NC(=O)COc1cccc2ccccc12)C(=O)N[C@@H](CC(=O)O)C(=O)CSc1nccc(C(F)(F)F)n1`, the k3/ki in assay [1], in assay [2], in assay [3] and in assay [4] was 0 1/m/s throughout. In addition, the pIC50 in assay [5] is < 3.70.
With `CC(C)[C@H](NC(=O)COc1cccc2ccccc12)C(=O)N[C@@H](CC(=O)O)C(=O)CSc1nc[nH]n1`, the k3/ki in assay [1] is 401 1/m/s; in assay [2], 17 1/m/s; in assay [3] it was 0 1/m/s; in assay [4] it was 115 1/m/s. Moreover, the pIC50 in assay [5] was < 3.70.
In the case of `CC(C)[C@H](NC(=O)COc1cccc2ccccc12)C(=O)N[C@@H](CC(=O)O)C(=O)COc1ncnc2ccccc12`, the k3/ki in assay [1] is 343 1/m/s; in assay [2], 0 1/m/s; in assay [3], 4 1/m/s; in assay [4], 83 1/m/s. For the same molecule, in assay [5], the pIC50 was < 3.70.
As for `CC(C)[C@H](NC(=O)COc1cccc2ccccc12)C(=O)N[C@@H](CC(=O)O)C(=O)CSc1nccn1C`, the k3/ki in assay [1] was 11500 1/m/s; in assay [2], 570 1/m/s; in assay [3], 212 1/m/s; in assay [4], 1200 1/m/s. Further, in assay [5], the pIC50 is < 3.70.
`CC(C)[C@H](NC(=O)COc1cccc2ccccc12)C(=O)N[C@@H](CC(=O)O)C(=O)COc1nc2ccccc2[nH]1`: the k3/ki in assay [1] is 958 1/m/s; in assay [2] it was 0 1/m/s; in assay [3], 2 1/m/s; in assay [4], 41 1/m/s. For the same molecule, the pIC50 in assay [5] was < 3.70.
For `CC(C)[C@H](NC(=O)COc1cccc2ccccc12)C(=O)N[C@@H](CC(=O)O)C(=O)COc1ccc2ccccc2n1` the same measures were 979 1/m/s, 0 1/m/s, 9 1/m/s, 67 1/m/s and < 3.70.
As to `CC(C)[C@H](NC(=O)COc1cccc2ccccc12)C(=O)N[C@@H](CC(=O)O)C(=O)CSc1nnc(-c2ccccc2)o1`, the k3/ki is 4800 1/m/s in assay [1], 110 1/m/s in assay [2], 276 1/m/s in assay [3] and 280 1/m/s in assay [4]. The molecule further had a negative logarithm of the IC50 (pIC50) in assay [5] of 3.82.
With `CC(C)[C@H](NC(=O)COc1cccc2ccccc12)C(=O)N[C@@H](CC(=O)O)C(=O)COc1cc2ccccc2cn1`, the k3/ki in assay [1] was 3350 1/m/s; in assay [2], 96 1/m/s; in assay [3], 8 1/m/s; in assay [4] it was 693 1/m/s. The negative-log IC50 (pIC50) in assay [5] was < 3.70.
Regarding `Cc1nnc(SCC(=O)[C@H](CC(=O)O)NC(=O)[C@@H](NC(=O)COc2cccc3ccccc23)C(C)C)s1`, the k3/ki in assay [1] is 5240 1/m/s; in assay [2] it was 83 1/m/s; in assay [3] it was 0 1/m/s; in assay [4] it was 5480 1/m/s. Also, in assay [5], the pIC50 is 3.72.
For the molecule `CC(C)[C@H](NC(=O)COc1cccc2ccccc12)C(=O)N[C@@H](CC(=O)O)C(=O)COc1cc(C(F)(F)F)n(C)n1`, the k3/ki was 35500 1/m/s in assay [1], 509 1/m/s in assay [2], 295 1/m/s in assay [3] and 9400 1/m/s in assay [4]. This molecule also had a pIC50 in assay [5] of 4.34.
Turning to `CC(C)[C@H](NC(=O)COc1cccc2ccccc12)C(=O)N[C@@H](CC(=O)O)C(=O)COc1ccnc(C(F)(F)F)n1`, the k3/ki in assay [1] was 114000 1/m/s; in assay [2], 5150 1/m/s; in assay [3], 3200 1/m/s; in assay [4] it was 24800 1/m/s. Moreover, the pIC50 in assay [5] is 4.43.
As for `CC(C)[C@H](NC(=O)COc1cccc2ccccc12)C(=O)N[C@@H](CC(=O)O)C(=O)CSC1=NCCS1`, the k3/ki was 2300 1/m/s in assay [1], 228 1/m/s in assay [2], 231 1/m/s in assay [3] and 186 1/m/s in assay [4]. Further, the pIC50 in assay [5] was < 3.70.
For `CC(C)[C@H](NC(=O)COc1cccc2ccccc12)C(=O)N[C@@H](CC(=O)O)C(=O)COc1cccc2cccnc12` the same measures were 4360 1/m/s, 140 1/m/s, 39 1/m/s, 1260 1/m/s and < 3.70.
For `CC(C)[C@H](NC(=O)COc1cccc2ccccc12)C(=O)N[C@@H](CC(=O)O)C(=O)COc1cc(C(F)(F)F)nn1-c1ccccc1` the same measures were 71100 1/m/s, 23900 1/m/s, 2270 1/m/s, 7570 1/m/s and 4.55.
Take `CC(C)[C@H](NC(=O)COc1cccc2ccccc12)C(=O)N[C@@H](CC(=O)O)C(=O)CSc1ccccn1`: the k3/ki was 348 1/m/s in assay [1], 0 1/m/s in assay [2], 0 1/m/s in assay [3] and 0 1/m/s in assay [4].
In the case of `CC(C)[C@H](NC(=O)COc1cccc2ccccc12)C(=O)N[C@@H](CC(=O)O)C(=O)CSc1nnnn1-c1ccccc1`, the k3/ki is 19200 1/m/s in assay [1], 224 1/m/s in assay [2], 0 1/m/s in assay [3] and 400 1/m/s in assay [4]. Besides, the pIC50 in assay [5] is 3.82.
Take `Cc1cc(C)nc(OCC(=O)[C@H](CC(=O)O)NC(=O)[C@@H](NC(=O)COc2cccc3ccccc23)C(C)C)n1`: the k3/ki in assay [1] is 283 1/m/s; in assay [2], 0 1/m/s; in assay [3], 0 1/m/s; in assay [4], 10 1/m/s.
